{"source": "ChEMBL document CHEMBL1136984", "about": "“Orally active C-6 heteroaryl- and heterocyclyl-substituted imidazo[1,2-a]pyridine acid pump antagonists (APAs)” (Bioorg Med Chem Lett, 2009)"}
{"test": "Blood clearance in dog at 1 mg/kg/hr, iv dosed in saline containing hydroxylpropyl-beta-cyclodextrin and DMSO", "format": "ADME, organism-based, Canis lupus familiaris", "parameters": "route intravenous", "details": "not given", "units": {"clearance": "mL/min/kg"}}
{"compound": "Cc1cccc(C)c1CNc1cc(-n2ccccc2=O)cn2c(CO)c(C)nc12", "clearance": 10}
{"compound": "Cc1cccc(C)c1CNc1cc(-n2cncn2)cn2c(C)c(C)nc12", "clearance": 50}
{"test": "not given", "details": "buffer, pH 7.4"}
{"compound": "Cc1cccc(C)c1COc1cc(-n2ccccc2=O)cn2c(C)c(C)nc12", "CHI": 2.12}
{"compound": "Cc1cccc(C)c1CNc1cc(-n2ccc(=O)cc2)cn2c(C)c(C)nc12", "CHI": 1.58}
{"compound": "Cc1cccc(C)c1CNc1cc(-n2cc(C(N)=O)ccc2=O)cn2c(C)c(C)nc12", "CHI": 1.71}
{"compound": "Cc1cccc(C)c1CNc1cc(-n2cnccc2=O)cn2c(C)c(C)nc12", "CHI": 2.33}
{"compound": "Cc1cccc(C)c1CNc1cc(C(=O)NCCO)cn2c(C)c(C)nc12", "note": "[LINAPRAZAN]", "CHI": 2.14}
{"compound": "Cc1nc2c(NCc3ccc(F)cc3Cl)cc(-n3ccccc3=O)cn2c1C", "CHI": 2.26}
{"compound": "Cc1nc2c(NCc3cccnc3)cc(-n3ccccc3=O)cn2c1C", "CHI": 0.73}
{"compound": "COc1ccccc1CNc1cc(-n2ccccc2=O)cn2c(C)c(C)nc12", "CHI": 1.93}
{"compound": "CCc1cccc(C)c1CNc1cc(C(N)=O)cn2c(C)c(C)nc12", "CHI": 2.52}
{"compound": "Cc1cccc(C)c1CNc1cc(N2CCCCC2=O)cn2c(C)c(C)nc12", "CHI": 2.79}
{"compound": "Cc1nc2c(NCc3ccc(F)cc3Cl)cc(-n3cncn3)cn2c1C", "CHI": 2.61}
{"compound": "Cc1nc2c3c(c(-n4ccccc4=O)cn2c1C)CC[C@@H](c1ccccc1)N3", "CHI": 3.35}
{"compound": "Cc1cccc(C)c1CNc1cc(-n2cncn2)cn2c(C)c(C)nc12", "CHI": 3.07}
{"compound": "Cc1cccc(CNc2cc(-n3ccccc3=O)cn3c(C)c(C)nc23)c1", "CHI": 2.17}
{"test": "in vivo", "details": "rat, blood, iv, 1 mg/kg", "units": {"clearance": "mL/min/kg"}}
{"compound": "Cc1cccc(C)c1CNc1cc(-n2ccccc2=O)cn2c(CO)c(C)nc12", "clearance": 37}
{"compound": "Cc1cn2cc(-n3ccccc3=O)cc(NCc3c(C)cccc3C)c2n1", "clearance": 58}
{"compound": "Cc1cccc(C)c1CNc1cc(-n2cncn2)cn2c(C)c(C)nc12", "clearance": 83}
{"test": "in vivo", "details": "rat, iv, 1 mg/kg", "units": {"Vd": "L/kg"}}
{"compound": "Cc1cccc(C)c1CNc1cc(-n2ccccc2=O)cn2c(CO)c(C)nc12", "Vd": 1}
{"compound": "Cc1cn2cc(-n3ccccc3=O)cc(NCc3c(C)cccc3C)c2n1", "Vd": 1.8}
{"compound": "Cc1cccc(C)c1CNc1cc(-n2cncn2)cn2c(C)c(C)nc12", "Vd": 3.5}
{"test": "in vivo", "details": "dog, iv, 1 mg/kg", "units": {"Vd": "L/kg"}}
{"compound": "Cc1cccc(C)c1CNc1cc(-n2ccccc2=O)cn2c(CO)c(C)nc12", "Vd": 1.1}
{"compound": "Cc1cccc(C)c1CNc1cc(-n2cncn2)cn2c(C)c(C)nc12", "Vd": 6.6}
{"test": "in vivo", "details": "rat, iv, 1 mg/kg", "remark": "another data set of the same source", "units": {"half-life": "h"}}
{"compound": "Cc1cccc(C)c1CNc1cc(-n2ccccc2=O)cn2c(CO)c(C)nc12", "half-life": 5.3}
{"compound": "Cc1cn2cc(-n3ccccc3=O)cc(NCc3c(C)cccc3C)c2n1", "half-life": 0.5}
{"test": "in vivo", "details": "dog, iv, 1 mg/kg", "remark": "another data set of the same source", "units": {"half-life": "h"}}
{"compound": "Cc1cccc(C)c1CNc1cc(-n2ccccc2=O)cn2c(CO)c(C)nc12", "half-life": 1.6}
{"compound": "Cc1cccc(C)c1CNc1cc(-n2cncn2)cn2c(C)c(C)nc12", "half-life": 2.3}
{"test": "in vivo", "details": "rat, po, 1 mg/kg", "units": {"bioavailability": "%"}}
{"compound": "Cc1cccc(C)c1CNc1cc(-n2ccccc2=O)cn2c(CO)c(C)nc12", "bioavailability": 28}
{"compound": "Cc1cn2cc(-n3ccccc3=O)cc(NCc3c(C)cccc3C)c2n1", "bioavailability": 18}
{"compound": "Cc1cccc(C)c1CNc1cc(-n2cncn2)cn2c(C)c(C)nc12", "bioavailability": 21}
{"test": "in vivo", "details": "dog, po, 1 mg/kg", "units": {"bioavailability": "%"}}
{"compound": "Cc1cccc(C)c1CNc1cc(-n2ccccc2=O)cn2c(CO)c(C)nc12", "bioavailability": 36}
{"compound": "Cc1cccc(C)c1CNc1cc(-n2cncn2)cn2c(C)c(C)nc12", "bioavailability": 12}
